{
  "source": "the METLIN SMRT retention time set (Domingo-Almenara et al. 2019)",
  "data": [
    {"assay": "gradient 5% acetonitrile 3 min, to 50% in 2 min, to 85% in 15 min, held 3 min, 100 µL/min", "conditions": "column: Zorbax Extend-C18 2.1 x 50 mm; eluents: water / acetonitrile, 0.1% formic acid", "how_it_was_run": "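Retention times come from adduct peaks that were picked computationally and then checked by hand. The standards, pure and pooled in mixtures of ~100 molecules, were run on a Zorbax Extend-C18 column (2.1 × 50 mm, 1.8 μm) at 100 μL/min with water and acetonitrile, each with 0.1% formic acid. Detection was by quadrupole time-of-flight mass spectrometry in positive and negative ionization mode, with a dead volume of 40 μL and a dwell volume of 900 μL.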", "units": {"RP-LC retention time": "s"}, "values": [
      {"compound": "Cc1ccc(NS(=O)(=O)c2cc(-c3nc(C(C)C)cs3)cs2)cc1C", "RP-LC retention time": 1260},
      {"compound": "Cc1ccc(C)c(-c2csc(Nc3ccc(Br)cn3)n2)c1", "RP-LC retention time": 1330},
      {"compound": "CC(C)NC(=O)c1cc2c(s1)N(CC1CC1)CCCC2", "RP-LC retention time": 1080},
      {"compound": "COc1ccc(-c2nnc(Cc3nc(-c4ccc5c(c4)OCO5)no3)o2)cc1OC", "RP-LC retention time": 940},
      {"compound": "CC1=C(c2ccc(F)cc2)S(=O)(=O)N=C1N1CCCN(C(=O)NCCC(C)C)CC1", "RP-LC retention time": 837},
      {"compound": "Cc1sc(-c2noc(C(C)C)n2)cc1S(=O)(=O)N1CCC(C(=O)NCc2cccs2)CC1", "RP-LC retention time": 1030},
      {"compound": "CCOC(=O)CNC(=O)Cn1c(-c2cccnc2)nc2ccccc21", "RP-LC retention time": 608},
      {"compound": "CN(C)S(=O)(=O)c1ccc(-c2nnc(C(=O)NCc3ccccn3)o2)cc1", "RP-LC retention time": 649},
      {"compound": "Cc1ccccc1N1CCN(C(=O)C2=CCN(Cc3cccc(F)c3)CC2)CC1", "RP-LC retention time": 712},
      {"compound": "COCCn1ncc(N2CCCC(CC(=O)O)C2)cc1=O", "note": "(stereo unspecified)", "RP-LC retention time": 613},
      {"compound": "Cc1oc(-c2ccccc2)nc1Cn1ccn2nc(-c3cccs3)cc2c1=O", "RP-LC retention time": 1060},
      {"compound": "CCN1CCN(CCCNC(=O)CN2C(=O)C3CCCCN3c3ccc(C(=O)N(C)C)cc32)CC1", "note": "(stereo unspecified)", "RP-LC retention time": 579},
      {"compound": "O=C(Nc1ccc(OCc2nnc(-c3ccccc3)o2)cc1)C1CCCC1", "RP-LC retention time": 885},
      {"compound": "CCCn1cc(C(=O)NCC(=O)OCC)c(S(=O)(=O)N2CCN(c3ccccc3Cl)CC2)n1", "RP-LC retention time": 1090},
      {"compound": "Cn1nccc1C(=O)N1CCC(c2nc(-c3ccc(F)cc3)no2)CC1", "RP-LC retention time": 811},
      {"compound": "Cc1noc(C2(NC(=O)c3ccc4ccccc4n3)CCCCC2)n1", "RP-LC retention time": 1060},
      {"compound": "CCOc1cccc(C2CC(=O)NC3=C2C(=O)C(C(=O)OC)C(C)C3)c1", "note": "(stereo unspecified)", "RP-LC retention time": 750},
      {"compound": "CCCNC(=O)C1CCCN(c2ccc(=O)n(-c3cccc(F)c3)n2)C1", "note": "(stereo unspecified)", "RP-LC retention time": 699},
      {"compound": "O=C(Nc1ccc2nnc(-c3ccc(C(=O)N4CCSCC4)cc3)n2c1)C1CCC1", "RP-LC retention time": 885},
      {"compound": "O=C(c1cccn1-c1nnc(N2CCCC2)s1)N1CCN(c2ccccn2)CC1", "RP-LC retention time": 598},
      {"compound": "Cc1nc(CC(=O)NCCc2c[nH]c3ccc(Cl)cc23)cs1", "RP-LC retention time": 754},
      {"compound": "Cn1nc(-c2nc(C3CC3)no2)c2c1CCN(C(=O)c1ccc(Cl)s1)C2", "RP-LC retention time": 928},
      {"compound": "N#Cc1cccc(-c2cn3c(n2)N(C(=O)c2ccccc2)CCC3)c1", "RP-LC retention time": 708},
      {"compound": "O=C(Nc1ccc(F)cc1Cl)c1c(O)c2cccnc2n(Cc2ccccc2)c1=O", "RP-LC retention time": 1240},
      {"compound": "O=c1c2cnc3nc(-c4ccccc4Cl)nn3c2ccn1CCc1c[nH]c2ccc(F)cc12", "RP-LC retention time": 947},
      {"compound": "Cc1nccn1C1CN(S(=O)(=O)c2cccc3cccnc23)C1", "RP-LC retention time": 571},
      {"compound": "COc1ccc(S(=O)(=O)N2CC(C(=O)NC3CCCC3)Oc3cc(C)ccc32)cc1", "note": "(stereo unspecified)", "RP-LC retention time": 1100},
      {"compound": "Cc1ccc2c(C(=O)N3CCN(Cc4ccccc4)CC3)cc(NC(=O)C(C)C)cc2n1", "RP-LC retention time": 571},
      {"compound": "COCC1(O)CCOC2(CCN(Cc3ccccc3C)CC2)C1", "note": "(stereo unspecified)", "RP-LC retention time": 591},
      {"compound": "Cc1csc(-c2cc(S(=O)(=O)Nc3cc(Cl)ccc3C)c(C)s2)n1", "RP-LC retention time": 1110},
      {"compound": "O=c1n(Cc2cccc(Cl)c2)nc2ccc(S(=O)(=O)N3CCCCC3)cn12", "RP-LC retention time": 989},
      {"compound": "COc1cccc(CNC(=O)C2CCCN(c3nc4ccccc4nc3OC)C2)c1", "note": "(stereo unspecified)", "RP-LC retention time": 1010},
      {"compound": "CCCNC(=O)CN1C(=O)C2CCCCN2c2ccc(S(=O)(=O)N(CC)CC)cc21", "note": "(stereo unspecified)", "RP-LC retention time": 862},
      {"compound": "CC1CCN(S(=O)(=O)c2cccc(-c3cn4cc(Cl)ccc4n3)c2)CC1", "RP-LC retention time": 1000},
      {"compound": "O=C1CN(S(=O)(=O)c2cccc(C(F)(F)F)c2)CC2(CCCCC2)N1C1CCCC1", "RP-LC retention time": 1250},
      {"compound": "CCCC(=O)N1CCc2c(c(C(=O)N3CCCC(C(=O)Nc4ccccc4C)C3)nn2C)C1", "note": "(stereo unspecified)", "RP-LC retention time": 759}
    ]}
  ]
}
